Consider one molecule from ChEMBL document CHEMBL1127015, “Centrally acting serotonergic and dopaminergic agents. 1. Synthesis and structure-activity relationships of 2,3,3a,4,5,9b-hexahydro-1H-benz[e]indole derivatives” (J Med Chem, 1993).

Each structure is given as a SMILES string. pKi: −log10 of the molar value.

What is called pKi is the negative decadic logarithm of the Ki, by convention in mol/L. Usually ED50 stands for the dose at which the effect has come halfway, by size or by number of responders.

Assay [1] has as its target T1, D(2) dopamine receptor (Homo sapiens, UniProt P14416). Nature of the assay: Intrinsic activity from GTP shift using membranes from CHO cells transfected with mammalian dopamine receptor D2. The class given is cell membranes.
The target in assay [2] is T1, D(2) dopamine receptor. Briefly: Binding affinity against [3H]U-86,170-labeled dopamine receptor D2 in cloned CHO cells. The class given is cell-based.
Assay [3] concerns Mus musculus. Briefly: Antagonism of apomorphine in reserpinized mice when a dose of 3.6 micro mol/kg is administered intraperitoneally. In kind it is functional.
Assay [4] relates to Mus musculus. Briefly: Antagonism of apomorphine in reserpinized mice when a dose of 36 micro mol/kg is administered intraperitoneally. In kind it is functional.
In assay [5] the test system is Mus musculus. Nature of the assay: Maximum decrease in temperature when compound is administered subcutaneously. The class given is functional.
Assay [6] deals with Mus musculus. Briefly: Antagonism of apomorphine effects for 10-20 minutes in reserpinized mice following 0.4 umol/kg i.p. The class given is functional.
Assay [7] deals with Mus musculus. Nature of the assay: Antagonism of apomorphine for 10-20 minutes in reserpinized mice when a dose of 3.6 micro mol/kg is administered intraperitoneally. The class given is functional.
Assay [8] relates to Mus musculus. Briefly: Antagonism of apomorphine effects for 0-10 minutes in reserpinized mice following 0.4 umol/kg i.p. More on the design: unit not given beside the values. The class given is functional.
Assay [9] deals with Mus musculus. Nature of the assay: Antagonism of apomorphine for 0-10 minutes in reserpinized mice when a dose of 3.6 micro mol/kg is administered intraperitoneally. In kind it is functional.
For assay [10], the system named is Mus musculus. Nature of the assay: Antagonism of apomorphine for 0-10 minutes in reserpinized mice when a dose of 36 micro mol/kg is administered intraperitoneally. In kind it is functional.
For assay [11], the system named is Mus musculus. Nature of the assay: Ability to stimulate dopaminergic systems by effect on locomotor activity in reserpinized mice when a dose of 3.6 micro mol/kg is administered intraperitoneally. The class given is functional.
Assay [12] concerns Mus musculus. Briefly: Ability to stimulate dopaminergic systems by effect on locomotor activity in reserpinized mice when a dose of 36 micro mol/kg is administered intraperitoneally. The class given is functional.
The test system of assay [13] is Mus musculus. Briefly: Increase in locomotor activity in reserpinized mice following 0.4 umol/kg i.p. In kind it is functional.
Assay [14] has as its system Mus musculus. Briefly: Antagonism of apomorphine for 10-20 minutes in reserpinized mice when a dose of 36 micro mol/kg is administered intraperitoneally. The class given is functional.
Assay [15] is filed under the species Rattus norvegicus. Nature of the assay: Effect on the synthesis rates of serotonin (5-HTP accumulation) in the rat ventral limbic brain region at 3.6uMkg. In kind it is functional, Limbic system.
The species entered for assay [16] is Rattus norvegicus. Nature of the assay: Effect on the synthesis rates of serotonin (5-HTP accumulation) in the rat ventral limbic brain region at 3.6uMkg. The class given is functional, Limbic system.
Assay [17] deals with Mus musculus. Briefly: Antagonism of apomorphine effects in reserpinized mice following 0.4 umol/kg i.p. In kind it is functional.
The subject of assay [18] is Mus musculus. Briefly: Effective dose on hypothermia in mouse when administered subcutaneously. In kind it is functional. The conditions noted are these: sc.

T1 sequence (P14416 whole entry): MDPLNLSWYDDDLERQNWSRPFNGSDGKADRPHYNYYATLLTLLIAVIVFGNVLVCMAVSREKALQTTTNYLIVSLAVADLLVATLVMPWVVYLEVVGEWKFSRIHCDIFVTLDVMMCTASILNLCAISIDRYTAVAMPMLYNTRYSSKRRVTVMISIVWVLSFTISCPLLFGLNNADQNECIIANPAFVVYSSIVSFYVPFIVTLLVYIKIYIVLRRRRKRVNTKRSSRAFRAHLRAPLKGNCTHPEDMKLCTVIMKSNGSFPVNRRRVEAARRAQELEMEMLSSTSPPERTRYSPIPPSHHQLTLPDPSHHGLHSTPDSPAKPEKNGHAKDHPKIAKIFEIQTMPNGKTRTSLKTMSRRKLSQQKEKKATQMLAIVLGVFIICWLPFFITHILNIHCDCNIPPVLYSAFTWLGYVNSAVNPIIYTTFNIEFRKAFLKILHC

As to `C=CCN1CC[C@@H]2c3c(cccc3OC)CC[C@H]21` (racemic), the Intrinsic activity at D(2) dopamine receptor [1] stood at 0%. At D(2) dopamine receptor [2], this molecule had a negative logarithm of the Ki (pKi) of 8.07. Besides, the Locomotor activity is on record as 30 with Mus musculus [3]; 5 in the assay on Mus musculus [4]; 65 with Mus musculus [6]; 57 in the assay on Mus musculus [7]; 65 with Mus musculus [8]; 65 in the assay with Mus musculus [9]. The Locomotor activity in the assay on Mus musculus [10] was found to be 40; in the assay with Mus musculus [11] it was 11; in the assay with Mus musculus [12], 48; in the assay with Mus musculus [13], 36; in the assay with Mus musculus [14], 32; with Mus musculus [17], 140. Besides, in the assay with Mus musculus [5], the Max temperature decrease is on record as 4.5. The Control in the assay filed under Rattus norvegicus [15] is recorded as 158%; in the assay filed under Rattus norvegicus [16], -28%. This molecule also came in with an ED50 in the assay with Mus musculus [18] of 40 µmol/kg.
